Patent US12180138B2, “Lipid nanoparticle compositions for delivering circular polynucleotides” (Orna Therapeutics, Inc., priority 2021, dated 2024)

Columns and labels:
[1] = tested on: splenic immune cells (T cells, myeloid cells, B cells, NK cells); assay: mOX40L expression in splenic immune cells after IV LNP-circular RNA (flow cytometry); assay type: in vivo, C57BL/6 mice; conditions: 1 mg/kg intravenously, 24 hours; IL:P 5.7; vs Lipid 15 of Table 10f
Experimental: The ionizable lipid:helper lipid:cholesterol:PEG-lipid molar ratio of these LNPs was 50:10:38.5:1.5. Dialysis of the LNPs were performed using PBS. C57BL/6 female mice (6-8 weeks, n=4) were dosed at either LNP comprising Lipid 1 of Table 10e or the Lipid 15 of Table 10f at 1 mg/kg intravenously. At 24 hours, the spleen from the mice were collected for flow cytometry analysis. mOX40L transfection of Lipid 1 of Table 10e and Lipid 15 of Table 10f were compared in T cells, myeloid cells, B cells, and NK cells.

[2] = tested on: splenic T cells; assay: mOX40L expression in splenic T cells after IV LNP-circular RNA; assay type: in vivo, C57BL/6 mice; conditions: 1 mg/kg intravenously, 24 hours
Experimental: The ionizable lipid:helper lipid: cholesterol:PEG-lipid molar ratio of these LNPs was 50:10:38.5:1.5. C57BL/6 female mice (6-8 weeks, n=4) were dosed at 1 mg/kg intravenously. At 24 hours, the spleen from the mice were collected for flow cytometry analysis, tested for weight loss and measured for serum alanine aminotransferase (ALT) after blood collection. mOX40L expression was measured in splenic T cells.

## CCCCCCCCCCCCC(O)CN(CCCO)CCCCCCCC(=O)OC(CCCCCCCC)CCCCCCCC (centres unmarked) [Lipid 1 of Table 10e, heptadecan-9-yl 8-((3-hydroxypropyl)(2-hydroxytetradecyl)amino)octanoate]
[1]
  mOX40L transfection in splenic immune cells: comparable or higher levels of mOX40L transfection
[2]
  mOX40L expression in splenic T cells: expression of mOX40L in splenic T cells
